Source: patent US9211313B2, “Methods and compound to inhibit Ca2+ permeable cation conductance” (priority 2011, dated 2015)

Key:
[1] = tested on: Berkeley sickle mouse red cells; experiment: Fluo-3 fluorescence measurement of [Ca2+]i during deoxygenation, Berkeley cells; assay type: cell-based; settings: 1 μM bath preincubation
Procedure: Blood was withdrawn by cardiac puncture or from the tail vein of C57B16/J wildtype mice, SAD sickle mice, or Berkeley sickle mice into heparinized syringes by IACUC-approved protocols of Beth Israel Deaconess Medical Center. Buffy coat-depleted cells were washed 5 times in standard mouse red cell wash solution containing (in mM) 172 choline Cl, 10 sucrose, 10 Na Tris-MOPS, pH 7.4, resuspended in storage solution, and kept at 4° C. until use.
Fluorescence measurements of cytosolic [Ca^2+] […]
(§1) Measurement of relative changes in [Ca^2+]i by Fluo-3 fluorescence emission was previously validated in intact human (Yang et al. 2000, Blood, 95(7):2421-2425; Andrews et al. 2002, Blood, 199(9):3392-3399) and mouse red cells (Akel et al. 2007, Amer. J. Physiol., 292(5):C1759-1767). […] Fluorescence emission (proportional to [Ca^2+]i) from a 535ds20 bandpass filter was collected from all attached single cells within the arbitrarily selected visual field. […]
Fluo-3 fluorescence from attached cells on each coverslip was recorded 60 sec in room air and then for 10 min after onset of perfusion chamber flushing with humidified 100% N2. […] The y-axis value of 0% change in Fluo-3 fluorescence intensity represented mean intensity recorded from all cells within the coverslip visual field during the 60 sec prior to deoxygenation.

human SS red cells = experiment: Fluo-3 fluorescence measurement of [Ca2+]i during deoxygenation, human SS cells; assay type: cell-based; settings: 1 μM, 10 min pretreatment and continued presence in bath
Procedure: Blood cell preparation: Human SS and AA blood was obtained under IRB-approved protocols of Children's Hospital and Beth Israel Deaconess Medical Center. After buffy coat removal and 5 washes in standard human red cell wash solution containing (in mM) 150 choline Cl, 1 MgCl, and 10 Tris-MOPS, pH 7.4, red cells were resuspended in storage solution containing (in mM) 145 KCl, 15 NaCl, and 10 HEPES, pH 7.4, then kept at 4° C. until used. Human red cells allowed to settle on coverslips were mounted on an inverted microscope in a 200 μl open chamber (WPI, Sarasota, Fla.) and superfused 15 min at room temperature by bath solution containing (in mM) 150 Na methanesulfonate, 10 Na EDTA, and 10 Na HEPES, pH 7.4.
Washed human or mouse red cells in solution containing (in mM) 140 NaCl, 5 KCl, 1 CaCl2, 1 MgCl2, 10 Na HEPES, pH 7.4 were exposed for 1 hr on a rotary platform in a 37° C. incubator to 25 ppm carbon monoxide (CO) in 5% CO2. CO-exposed cells were then subjected to patch clamp or to calcium imaging experiments within 60 min after return to room air, using the solutions indicated.
Fluorescence measurements of cytosolic [Ca^2+] ([Ca^2+]i): After removal of plasma and buffy coat by aspiration, human or mouse red cells were washed three times at room temperature and suspended in modified Hank's solution containing (in mM), 137 NaCl, 5.4 KCl, 1 CaCl2, 1 MgCl2, 0.8 NaK phosphate, 5.6 glucose, and 10 Na HEPES, pH 7.4. Dilute cell suspensions were settled on polylysine-coated coverslips forming the bottom of an open perfusion chamber (2.5 cm diameter, 1 cm depth) and washed again 3 times.
as §1
Fluo-3 fluorescence from attached cells on each coverslip was recorded 60 sec in room air and then for 10 min after onset of perfusion chamber flushing with humidified 100% N2. The normalized increase in Fluo-3 fluorescence in SS cells subjected to this deoxygenation procedure was indistinguishable from that observed during superfusion of cells in a closed perfusion chamber via syringe pump with bath previously bubbled for 60 min with 100% N2 (n=62 cells from 2 SS patients, not shown). The y-axis value of 0% change in Fluo-3 fluorescence intensity represented mean intensity recorded from all cells within the coverslip visual field during the 60 sec prior to deoxygenation.

mdx mice = experiment: Toxicity with daily subQ dosing for 30 days; assay type: in vivo, mouse
Procedure: This example describes toxicity studies with GsMTx-4. In one experiment, D-GsMTx4 was administered to 60 mdx mice and controls by daily subQ dosing at 5 mg/kg for 30 days at the Washington D.C. Wellstone center.

## Grammastola spatulata mechanotoxin 4 (GCLEFWWKCNPNDDKCCRPKLKCSKLFKLCNFSF; listed as Grammastola spatulata) [GsMTx-4]
[1]
  effect on deoxygenation-increased [Ca2+]i: inhibited nearly completely
[1]; listed as GsMtx-4
  effect on deoxygenation-increased [Ca2+]i: prevented
Human SS red cells
  effect on [Ca2+]i elevation by deoxygenation: prevented
Human SS red cells; listed as GsMTx4
  effect on [Ca2+]i elevation by deoxygenation: nearly completely block
Human SS red cells; listed as GsTMx-4
  effect on [Ca2+]i elevation by deoxygenation: blocked
Mdx mice
  toxicity in mice, general statement: very low to absent toxicity
Mdx mice; 5 mg/kg subQ daily, 30 days (month long)
  toxicity: no toxicity observed
